Experimental data from patent US20080206222A1, “Preventive/Therapeutic Composition For Free Radical Disease” (priority 2004, published 2008).

Assays:
[1] = Stability test in aqueous solution (HPLC residual ratio); assay type: physicochemical; conditions: 0.1% aqueous solution in purified water, room temperature
Procedure: A difference in the stabilities of PVP/fullerene (molecular weight of PVP: 60,000), a fullerene monoester, and salts of a fullerene monoester in an aqueous solution (a storage test at room temperature for 10 days) is shown in Table 7. […] Incidentally, the stability was evaluated by determining the residual ratio of the above substance using the HPLC method by leaving a 0.1% aqueous solution of the above substance (in purified water) at room temperature for 10 days.

[2] = system: human fibrosarcoma cell line HT1080; assay: Test for cell migration (cell haptotaxis), Boyden double chamber; assay type: cell-based; conditions: HT1080, administered at 300 μM; coulometry and HPLC with ECD
Procedure: A Boyden double chamber was used, in which a porous film with 8 μm pores was placed, the upper surface of the porous film was coated with Matrigel as a reconstituted basement membrane, the lower surface of the porous film was coated with fibronectin as an extracellular matrix. […] Further, the concentration of ascorbic acid present in the cells was determined by coulometry and HPLC with ECD.

[3] = system: Bovine aortic endothelial cells BAE2; conditions: 22 h, 50 μM
Procedure: Bovine aortic endothelial cells BAE2 were inoculated at a cell density of 8×10^4/cm^2, and after 18 hours, each of a fullerene, ascorbic acid and the fullerenes of the invention of this application of the formulation Nos. 1 to 13 shown in the above Table 1 was administered at a concentration of 50 μM which falls within the range of the level of the respective substances in the normal human blood. After 22 hours, the amounts of fullerenes and ascorbic acid present in the cells were determined by coulometry and HPLC (high-performance liquid chromatography) with ECD (electrochemical detection). The water content in the cells was measured by gas chromatography using 14C-labeled polyethylene glycol and found to be 0.598 μL/cell.

[4] = system: rat coronary artery occlusion model; assay: Test for comparative effect on organ failure (versus human Cu-Zn SOD); assay type: in vivo; conditions: 5 mg/kg intravenously before occlusion and once daily for 5 days; dissection after 10 days; control Ringer's solution with human Cu-Zn SOD
Procedure: A rat coronary artery occlusion model was subjected to systemic ischemia for 5 minutes, followed by reperfusion. When the level of free radical-dependent chemiluminescence in the peripheral blood was measured using a chemical luminescence manufactured by Showa Denko K. K. from the start of this experiment, a significant increase in the level of free radical was observed from immediately after the initiation of reperfusion. In a test group, the injectable solution of Example 2 was intravenously administered to the rat at 5 mg/kg at 15 minutes before the occlusion of the coronary artery of the rat in advance, and in a control group, a Ringer's solution supplemented with human Cu—Zn SOD was injected in the same manner as in the test group. Also after the initiation of reperfusion, the above pharmaceutical composition of the present invention was injected at the same dose once daily for 5 days, and after 10 days, dissection was carried out, and cardiac, hepatic, renal, pancreatic and cystic cell necrosis indices were determined using a 45 Ca-autoradiography/image analyzer.

| Compound | Residual ratio after 10 days (%) [1] [%] | concentration of ascorbic acid present in the cells [2] [µM] | concentration in the cells [3] [µM] | concentration in the cells relative to that outside the cells [3] [times] | necrosis of cardiac, hepatic, renal, pancreatic and cystic cells (45Ca-autoradiography/image analyzer) [4] |
| --- | --- | --- | --- | --- | --- |
| O=C1O[C@H]([C@@H](O)CO)C(O)=C1O [Ascorbic acid] | 0 | 103 | 60 | 1.2 | – |
| human Cu—Zn SOD: human Cu—Zn SOD added to Ringer's solution for the control group | – | – | – | – | delayed cell death |
